Data as given in PubChem BioAssay AID1963976 (Molecular Pharmacology Branch, DTP, NCI, 2024).

System: 435261-313-R-J1-PDC tumor spheroid viability
Assay: Anticancer human tumor 435261-313-R-J1-PDC patient-derived colon adenocarcinoma cell line growth inhibition [PI3K]
Settings: spheroids with HUVEC and MSC; for IC50: curve of first compound; for viability, T/C: stronger effect = lower value
Method in brief: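 High-throughput combination screen: PI3K inhibitors crossed with targeted small molecules on complex spheroids of tumor cells, HUVEC and MSCs at 37 degrees C, 5% CO2. Top concentration was at or near clinical Cmax (otherwise 10 microM), with half-log decrements.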
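Further: spheroids exposed to compounds for 7 days.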

- IC50 (second compound 0.00316 µM): 52.9 nM
- IC50 (second compound 0.01 µM): < 3.16 nM
- IC50 (second compound 0.0316 µM): < 3.16 nM
- IC50 (second compound 0.1 µM): < 3.16 nM
- IC50 (second compound 0.316 µM): < 3.16 nM
- IC50 (second compound 1 µM): < 3.16 nM
SMILES: CCN1CCN(Cc2ccc(Nc3ncc(F)c(-c4cc(F)c5nc(C)n(C(C)C)c5c4)n3)nc2)CC1 + COc1c(OCCCN2CCOCC2)ccc2c3n(c(=NC(=O)c4cnc(N)nc4)nc12)CCN3
- viability, T/C (second compound 0.00316 µM, first compound 0.00316 µM): 49.3%
- viability, T/C (second compound 0.00316 µM, first compound 0.01 µM): 57.2%
- viability, T/C (second compound 0.00316 µM, first compound 0.0316 µM): 65.2%
- viability, T/C (second compound 0.00316 µM, first compound 0.1 µM): 35.8%
- viability, T/C (second compound 0.00316 µM, first compound 0.316 µM): 40.6%
- viability, T/C (second compound 0.00316 µM, first compound 1 µM): 46.6%
- viability, T/C (second compound 0.01 µM, first compound 0.00316 µM): 42.3%
- viability, T/C (second compound 0.01 µM, first compound 0.01 µM): 39.8%
- viability, T/C (second compound 0.01 µM, first compound 0.0316 µM): 35.4%
- viability, T/C (second compound 0.01 µM, first compound 0.1 µM): 33%
- viability, T/C (second compound 0.01 µM, first compound 0.316 µM): 32.7%
- viability, T/C (second compound 0.01 µM, first compound 1 µM): 42.5%
- viability, T/C (second compound 0.0316 µM, first compound 0.00316 µM): 28.9%
- viability, T/C (second compound 0.0316 µM, first compound 0.01 µM): 22.6%
- viability, T/C (second compound 0.0316 µM, first compound 0.0316 µM): 24.1%
- viability, T/C (second compound 0.0316 µM, first compound 0.1 µM): 23.3%
- viability, T/C (second compound 0.0316 µM, first compound 0.316 µM): 26.6%
- viability, T/C (second compound 0.0316 µM, first compound 1 µM): 25.2%
- viability, T/C (second compound 0.1 µM, first compound 0.00316 µM): 15.2%
- viability, T/C (second compound 0.1 µM, first compound 0.01 µM): 15.4%
- viability, T/C (second compound 0.1 µM, first compound 0.0316 µM): 18.1%
- viability, T/C (second compound 0.1 µM, first compound 0.1 µM): 13.7%
- viability, T/C (second compound 0.1 µM, first compound 0.316 µM): 15.6%
- viability, T/C (second compound 0.1 µM, first compound 1 µM): 16.7%
- viability, T/C (second compound 0.316 µM, first compound 0.00316 µM): 8.47%
- viability, T/C (second compound 0.316 µM, first compound 0.01 µM): 8.29%
- viability, T/C (second compound 0.316 µM, first compound 0.0316 µM): 8.24%
- viability, T/C (second compound 0.316 µM, first compound 0.1 µM): 6.93%
- viability, T/C (second compound 0.316 µM, first compound 0.316 µM): 8.43%
- viability, T/C (second compound 0.316 µM, first compound 1 µM): 9.13%
- viability, T/C (second compound 1 µM, first compound 0.00316 µM): 4.09%
- viability, T/C (second compound 1 µM, first compound 0.01 µM): 3.66%
- viability, T/C (second compound 1 µM, first compound 0.0316 µM): 3.83%
- viability, T/C (second compound 1 µM, first compound 0.1 µM): 2.75%
- viability, T/C (second compound 1 µM, first compound 0.316 µM): 3.7%
- viability, T/C (second compound 1 µM, first compound 1 µM): 3.49%
